Patent US9192644B2, “Bioavailable curcuminoid formulations for treating Alzheimer's disease and other age-related disorders” (The Regents of the University of California, priority 2006, dated 2015)
Like-named read-outs stand apart in the source and are kept apart here. Marks after values point to notes of the source that are not given here.

Experiments:
[1] = Plasma levels after chronic Curc or TC administration in diet (500 ppm chow, 4 months); type: in vivo, APPsw mice; conditions: for Plasma (μM) / concentration at 4 months: APPsw mice, 500 mg/kg chow (2.5 mg/day), 4 months; for concentration at 4 months: mouse, plasma, oral
iNOS = assay: Inhibition of iNOS in brain after curcumin administration; type: in vivo; conditions: mice, plasma levels 0.25-0.5 micromolar
[2] = Conversion of curcumin to tetrahydrocurcumin in plasma; type: in vivo
[3] = system: active c-jun kinase (p)JNK; assay: Inhibition of active c-jun kinase in brain after curcumin administration; type: in vivo; conditions: mice, plasma levels 0.25-0.5 micromolar
IL-1β = assay: Inhibition of pro-inflammatory IL-1β in brain after curcumin administration; type: in vivo; conditions: mice, plasma levels 0.25-0.5 micromolar
in vivo = conditions: mouse
amyloid accumulation = assay: Amyloid accumulation in vivo in APP Tg mice
[4] = type: physicochemical
Description: Therefore, providing a curcuminoid-to-antioxidant ratio of about 10:1 or higher should be sufficient to prevent hydrolysis during absorption, and enhance bioavailability. […] Thus, additional antioxidant need not add prohibitively to the bulk of a formulation.

[5] = 4 hr after administration

COc1cc(/C=C/C(=O)CC(=O)/C=C/c2ccc(O)c(OC)c2)ccc1O [Curc, curcumin]
Plasma (μM) [1]: (0.095 μM)
concentration at 4 months [1]: 35 ± 14 ng/mL
inhibition of iNOS (iNOS): ~50%
curcuminoids in plasma naturally converted to tetrahydrocurcumin [2]: 25%
inhibition of active c-jun kinase (p)JNK [3]: ~50%
inhibition of pro-inflammatory IL-1β (IL-1β): ~50%
concentration at 4 hr (in vivo): 250 to 500 nM
amyloid accumulation (amyloid accumulation): effectively reduces
Brain (μg/10 mg protein) (mouse, in vivo, ip, 4 hr): 0.074 ± 0.003^b μg/10 mg protein
stability in aqueous solution [4]: unstable in aqueous solutions above pH 7.0

COc1cc(CCC(=O)CC(=O)CCc2ccc(O)c(OC)c2)ccc1O [TC, tetrahydrocurcumin]
Plasma (μM) [1]: (0.734 μM)
concentration at 4 months [1]: 270 ± 3 ng/mL
plasma levels relative to curcumin ([1]; same oral doses, our data and data in the literature): 7-8 times
Plasma (μM) ([5]; i.m., dose 73.5 μg): (2.639 μM)
Plasma (μM) ([5]; i.p., dose 147.0 μg): (2.302 μM)
concentration at 4 hr (in vivo; 73.5 μg): 971 ± 92 ng/mL
concentration at 4 hr (in vivo; ip, 147 μg): 847 ± 19 ng/mL
Brain (μg/10 mg protein) (gav, dose 147.0 μg, 4 hr after administration): 0.027 ± 0.002^a μg/10 mg protein
Brain (μg/10 mg protein) (i.m., dose 73.5 μg, 4 hr after administration): 0.223 ± 0.023^c μg/10 mg protein
Brain (μg/10 mg protein) (i.p., dose 147.0 μg, 4 hr after administration): 0.076 ± 0.003^b μg/10 mg protein
stability in aqueous solution [4]: stable even at basic pH

O=C1O[C@H]([C@@H](O)CO)C(O)=C1O [ascorbic acid]
retarding curcumin hydrolysis ([4]; 25 micromolar curcumin, PBS pH 7.4, absorbance at 426 nm (FIG. 2)): very effective
retarding hydrolysis of curcumin ([4]; curcumin-to-ascorbic acid ratio of 1:1 or 2:1, absorbance at 450 and 405 nm (FIGS. 3 and 4)): very effective
retarding hydrolysis of curcumin ([4]; curcumin-to-ascorbic acid ratios higher than 2:1 (FIGS. 3 and 4)): somewhat diminished effectiveness
